Data reported in PubChem BioAssay AID1963961 (Molecular Pharmacology Branch, DTP, NCI, 2024).
“And” between values parts separate entries of the source, which are not always exact repeats. Identical values can stand only once.

Test system: K98450-129-R-PDC multicell spheroids, viability
Experiment: Anticancer human tumor K98450-129-R-PDC patient-derived colon adenocarcinoma cell line growth inhibition [PI3K]
Settings: for viability, T/C: stronger effect = lower value
Outline: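 Multi-cell spheroids combine tumor cells with HUVEC and human MSCs, treated with targeted agents alone or with inavolisib, alpelisib, duvelisib or copanlisib. Concentrations fall in half-log steps from at or near clinical Cmax, or from 10 microM where Cmax is unknown; viability read-out.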

[1] = curve of first compound, second compound 0.0316 µM
[2] = curve of first compound, second compound 0.1 µM
[3] = curve of first compound, second compound 0.316 µM
[4] = curve of first compound, second compound 1 µM
[5] = curve of first compound, second compound 3.16 µM
[6] = curve of first compound, second compound 10 µM
[7] = second compound 0.0316 µM, first compound 0.0316 µM
[8] = second compound 0.0316 µM, first compound 0.1 µM
[9] = second compound 0.0316 µM, first compound 0.316 µM
[10] = second compound 0.0316 µM, first compound 1 µM
[11] = second compound 0.0316 µM, first compound 3.16 µM
[12] = second compound 0.0316 µM, first compound 10 µM
[13] = second compound 0.1 µM, first compound 0.0316 µM
[14] = second compound 0.1 µM, first compound 0.1 µM
[15] = second compound 0.1 µM, first compound 0.316 µM
[16] = second compound 0.1 µM, first compound 1 µM
[17] = second compound 0.1 µM, first compound 3.16 µM
[18] = second compound 0.1 µM, first compound 10 µM
[19] = second compound 0.316 µM, first compound 0.0316 µM
[20] = second compound 0.316 µM, first compound 0.1 µM
[21] = second compound 0.316 µM, first compound 0.316 µM
[22] = second compound 0.316 µM, first compound 1 µM
[23] = second compound 0.316 µM, first compound 3.16 µM
[24] = second compound 0.316 µM, first compound 10 µM
[25] = second compound 1 µM, first compound 0.0316 µM
[26] = second compound 1 µM, first compound 0.1 µM
[27] = second compound 1 µM, first compound 0.316 µM
[28] = second compound 1 µM, first compound 1 µM
[29] = second compound 1 µM, first compound 3.16 µM
[30] = second compound 1 µM, first compound 10 µM
[31] = second compound 3.16 µM, first compound 0.0316 µM
[32] = second compound 3.16 µM, first compound 0.1 µM
[33] = second compound 3.16 µM, first compound 0.316 µM
[34] = second compound 3.16 µM, first compound 1 µM
[35] = second compound 3.16 µM, first compound 3.16 µM
[36] = second compound 3.16 µM, first compound 10 µM
[37] = second compound 10 µM, first compound 0.0316 µM
[38] = second compound 10 µM, first compound 0.1 µM
[39] = second compound 10 µM, first compound 0.316 µM
[40] = second compound 10 µM, first compound 1 µM
[41] = second compound 10 µM, first compound 3.16 µM
[42] = second compound 10 µM, first compound 10 µM
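Note: spheroids exposed to agents for seven days before read-out.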

Cn1ncc(Cl)c1-c1cc(C(=O)NC(CN)Cc2cccc(F)c2)sc1Cl (configuration not stated) + CC(Nc1ncnc2nc[nH]c12)c1cc2cccc(Cl)c2c(=O)n1-c1ccccc1
IC50 [1]: > 10 µM | IC50 [2]: > 10 µM | IC50 [3]: > 10 µM | IC50 [4]: > 10 µM | IC50 [5]: 9.63 µM | IC50 [6]: 8.5 µM | viability, T/C [7]: 88.4% | viability, T/C [8]: 105% | viability, T/C [9]: 102% | viability, T/C [10]: 93.8% | viability, T/C [11]: 98.1% | viability, T/C [12]: 56.9% | viability, T/C [13]: 107% | viability, T/C [14]: 85% | viability, T/C [15]: 96% | viability, T/C [16]: 92.6% | viability, T/C [17]: 98.1% | viability, T/C [18]: 59.8% | viability, T/C [19]: 110% | viability, T/C [20]: 106% | viability, T/C [21]: 92.4% | viability, T/C [22]: 101% | viability, T/C [23]: 99% | viability, T/C [24]: 61.5% | viability, T/C [25]: 95.7% | viability, T/C [26]: 110% | viability, T/C [27]: 101% | viability, T/C [28]: 80.8% | viability, T/C [29]: 96.6% | viability, T/C [30]: 61.2% | viability, T/C [31]: 87.3% | viability, T/C [32]: 94.5% | viability, T/C [33]: 106% | viability, T/C [34]: 96.9% | viability, T/C [35]: 97% | viability, T/C [36]: 48.4% | viability, T/C [37]: 85.1% | viability, T/C [38]: 86.1% | viability, T/C [39]: 87% | viability, T/C [40]: 94.9% | viability, T/C [41]: 89.8% | viability, T/C [42]: 43.7%

CC(C)NCC(C(=O)N1CCN(c2ncnc3c2C(C)CC3O)CC1)c1ccc(Cl)cc1 (configuration not stated)
viability, T/C (compound 0.0316 µM): 94.2% and 100% and 107% (2×) | viability, T/C (compound 0.1 µM): 100% (2×) and 93.4% and 105% | viability, T/C (compound 0.316 µM): 105% [middle of 4 runs] | viability, T/C (compound 1 µM): 106% (2×) and 92.7% and 87.9% | viability, T/C (compound 3.16 µM): 93% [middle of 4 runs] | viability, T/C (compound 10 µM): 99.5% and 102% (2×) and 99.9% | IC50 (curve of compound): > 10 µM

Cc1nc(NC(=O)N2CCCC2C(N)=O)sc1-c1ccnc(C(C)(C)C(F)(F)F)c1 (configuration not stated)
viability, T/C (compound 0.0316 µM): 104% [middle of 8 runs] | viability, T/C (compound 0.1 µM): 103% [middle of 8 runs] | viability, T/C (compound 0.316 µM): 102% [middle of 8 runs] | viability, T/C (compound 1 µM): 99.1% [middle of 8 runs] | viability, T/C (compound 3.16 µM): 93.5% [middle of 8 runs] | viability, T/C (compound 10 µM): 75.9% [middle of 8 runs] | IC50 (compound alone, run of 04/24/2023): > 10 µM

CC(=O)c1c(C)c2cnc(Nc3ccc(N4CCNCC4)cn3)nc2n(C2CCCC2)c1=O + CC(Nc1ncnc2nc[nH]c12)c1cc2cccc(Cl)c2c(=O)n1-c1ccccc1
IC50 [1]: > 0.1 µM | IC50 [2]: > 0.1 µM | IC50 [3]: > 0.1 µM | IC50 [4]: > 0.1 µM | IC50 [5]: > 0.1 µM | IC50 [6]: > 0.1 µM | viability, T/C (second compound 0.0316 µM, first compound 0.000316 µM): 105% | viability, T/C (second compound 0.0316 µM, first compound 0.001 µM): 100% | viability, T/C (second compound 0.0316 µM, first compound 0.00316 µM): 110% | viability, T/C (second compound 0.0316 µM, first compound 0.01 µM): 99% | viability, T/C [7]: 100% | viability, T/C [8]: 86.2% | viability, T/C (second compound 0.1 µM, first compound 0.000316 µM): 109% | viability, T/C (second compound 0.1 µM, first compound 0.001 µM): 94.8% | viability, T/C (second compound 0.1 µM, first compound 0.00316 µM): 94.2% | viability, T/C (second compound 0.1 µM, first compound 0.01 µM): 96.1% | viability, T/C [13]: 93.1% | viability, T/C [14]: 99.3% | viability, T/C (second compound 0.316 µM, first compound 0.000316 µM): 107% | viability, T/C (second compound 0.316 µM, first compound 0.001 µM): 106% | viability, T/C (second compound 0.316 µM, first compound 0.00316 µM): 93.7% | viability, T/C (second compound 0.316 µM, first compound 0.01 µM): 94.8% | viability, T/C [19]: 101% | viability, T/C [20]: 81.6% | viability, T/C (second compound 1 µM, first compound 0.000316 µM): 102% | viability, T/C (second compound 1 µM, first compound 0.001 µM): 92.3% | viability, T/C (second compound 1 µM, first compound 0.00316 µM): 90.2% | viability, T/C (second compound 1 µM, first compound 0.01 µM): 101% | viability, T/C [25]: 101% | viability, T/C [26]: 85.8% | viability, T/C (second compound 3.16 µM, first compound 0.000316 µM): 105% | viability, T/C (second compound 3.16 µM, first compound 0.001 µM): 97.2% | viability, T/C (second compound 3.16 µM, first compound 0.00316 µM): 87.6% | viability, T/C (second compound 3.16 µM, first compound 0.01 µM): 94.5% | viability, T/C [31]: 96.9% | viability, T/C [32]: 89.9% | viability, T/C (second compound 10 µM, first compound 0.000316 µM): 92.4% | viability, T/C (second compound 10 µM, first compound 0.001 µM): 96.7% | viability, T/C (second compound 10 µM, first compound 0.00316 µM): 74.5% | viability, T/C (second compound 10 µM, first compound 0.01 µM): 82.2% | viability, T/C [37]: 103% | viability, T/C [38]: 72.2%

Cn1ncc(Cl)c1-c1cc(C(=O)NC(CN)Cc2cccc(F)c2)sc1Cl (configuration not stated) + CC(Nc1ccc2c(c1)OCCn1cc(N3C(=O)OCC3C(F)F)nc1-2)C(N)=O
IC50 (curve of first compound, second compound 0.00316 µM): > 10 µM | IC50 (curve of first compound, second compound 0.01 µM): > 10 µM | IC50 [1]: > 10 µM | IC50 [2]: > 10 µM | IC50 [3]: > 10 µM | IC50 [4]: > 10 µM | viability, T/C (second compound 0.00316 µM, first compound 0.0316 µM): 106% | viability, T/C (second compound 0.00316 µM, first compound 0.1 µM): 98.2% | viability, T/C (second compound 0.00316 µM, first compound 0.316 µM): 105% | viability, T/C (second compound 0.00316 µM, first compound 1 µM): 95.3% | viability, T/C (second compound 0.00316 µM, first compound 3.16 µM): 93.6% | viability, T/C (second compound 0.00316 µM, first compound 10 µM): 97.2% | viability, T/C (second compound 0.01 µM, first compound 0.0316 µM): 109% | viability, T/C (second compound 0.01 µM, first compound 0.1 µM): 102% | viability, T/C (second compound 0.01 µM, first compound 0.316 µM): 110% | viability, T/C (second compound 0.01 µM, first compound 1 µM): 95.9% | viability, T/C (second compound 0.01 µM, first compound 3.16 µM): 97.6% | viability, T/C (second compound 0.01 µM, first compound 10 µM): 102% | viability, T/C [7]: 109% | viability, T/C [8]: 109% | viability, T/C [9]: 99.4% | viability, T/C [10]: 102% | viability, T/C [11]: 90.3% | viability, T/C [12]: 99.3% | viability, T/C [13]: 88.7% | viability, T/C [14]: 102% | viability, T/C [15]: 103% | viability, T/C [16]: 97.5% | viability, T/C [17]: 97.1% | viability, T/C [18]: 95% | viability, T/C [19]: 85.7% | viability, T/C [20]: 100% | viability, T/C [21]: 95.9% | viability, T/C [22]: 95.6% | viability, T/C [23]: 98.7% | viability, T/C [24]: 92.9% | viability, T/C [25]: 87.1% | viability, T/C [26]: 85.9% | viability, T/C [27]: 91.9% | viability, T/C [28]: 94.4% | viability, T/C [29]: 91% | viability, T/C [30]: 85.7%

C=CC(=O)N1CCN(c2nc(=O)n(-c3c(C)ccnc3C(C)C)c3nc(-c4c(O)cccc4F)c(F)cc23)C(C)C1 (configuration not stated) + CC(Nc1ncnc2nc[nH]c12)c1cc2cccc(Cl)c2c(=O)n1-c1ccccc1
IC50 [1]: 5.34 µM | IC50 [2]: 3.4 µM | IC50 [3]: 5.92 µM | IC50 [4]: 3.54 µM | IC50 [5]: 1.84 µM | IC50 [6]: 2.02 µM | viability, T/C [7]: 94.3% | viability, T/C [8]: 96.5% | viability, T/C [9]: 79.7% | viability, T/C [10]: 74.1% | viability, T/C [11]: 53.3% | viability, T/C [12]: 44.4% | viability, T/C [13]: 106% | viability, T/C [14]: 99.7% | viability, T/C [15]: 89.2% | viability, T/C [16]: 67.9% | viability, T/C [17]: 52.4% | viability, T/C [18]: 36.5% | viability, T/C [19]: 111% | viability, T/C [20]: 105% | viability, T/C [21]: 92.1% | viability, T/C [22]: 68.5% | viability, T/C [23]: 54% | viability, T/C [24]: 46.9% | viability, T/C [25]: 113% | viability, T/C [26]: 104% | viability, T/C [27]: 89.4% | viability, T/C [28]: 73.9% | viability, T/C [29]: 46.9% | viability, T/C [30]: 42% | viability, T/C [31]: 93.5% | viability, T/C [32]: 98.1% | viability, T/C [33]: 96.9% | viability, T/C [34]: 60.5% | viability, T/C [35]: 44.5% | viability, T/C [36]: 36.6% | viability, T/C [37]: 81.2% | viability, T/C [38]: 78.4% | viability, T/C [39]: 84% | viability, T/C [40]: 67.1% | viability, T/C [41]: 39.4% | viability, T/C [42]: 32.8%
